This note sets out measurements from patent US7329661B2, “N-phenyl-3-pyrimidine-amine derivatives” (Novartis AG, priority 2000, dated 2008).

What is called melting point is the temperature of the solid-liquid transition.

In one data set the test system is CYP3A4/5. Briefly: Risk of metabolic drug interaction from in vitro P450 inhibition, CYP3A4/5. In kind it is in vitro ADME, human. The settings on record: ratio of plasma concentration to Ki. The source says: (§1) In order to evaluate the effect of the compounds of formula I on cytochromes P450 (CYPs), e.g. enzyme inhibition is routinely assessed by performing in vitro inhibition studies using cDNA-expressed enzymes or human liver microsomes (Parkinson, A., Toxicol. Pathol. 24, 45-57 [1996]). Specific drug marker substrate assays according to Tucker et al., Clin. Pharmacol. Ther. 70, 103-114 (2001) can be used to determine the 50% inhibition concentration (IC50) of a compound of formula I for the principal drug-metabolizing P450 enzymes such as e.g. CYP1A2, CYP2A6, CYP2B6, CYP2C8, CYP2C9, CYP2C19, CYP2D6, CYP2E1, CYP3A4/5 and CP4A9/11.
(§2) Inhibition constants Ki or IC50 values derived by these in vitro assays provide a measure for the inhibition capacity of the tested drug compound according to the ratio of drug concentration in plasma to the respective inhibition constant Ki, where a ratio of >1.0 results in a high risk, 1.0-0.1 in a medium risk, and <0.1 in a low risk of metabolic drug interaction.

In the next data set the target is CYP2D6 (Homo sapiens, UniProt P10635). Nature of the data set: Risk of metabolic drug interaction from in vitro P450 inhibition, CYP2D6. The settings on record: ratio of plasma concentration to Ki. In kind it is in vitro ADME.
Sequence of CYP2D6 (P10635 whole entry): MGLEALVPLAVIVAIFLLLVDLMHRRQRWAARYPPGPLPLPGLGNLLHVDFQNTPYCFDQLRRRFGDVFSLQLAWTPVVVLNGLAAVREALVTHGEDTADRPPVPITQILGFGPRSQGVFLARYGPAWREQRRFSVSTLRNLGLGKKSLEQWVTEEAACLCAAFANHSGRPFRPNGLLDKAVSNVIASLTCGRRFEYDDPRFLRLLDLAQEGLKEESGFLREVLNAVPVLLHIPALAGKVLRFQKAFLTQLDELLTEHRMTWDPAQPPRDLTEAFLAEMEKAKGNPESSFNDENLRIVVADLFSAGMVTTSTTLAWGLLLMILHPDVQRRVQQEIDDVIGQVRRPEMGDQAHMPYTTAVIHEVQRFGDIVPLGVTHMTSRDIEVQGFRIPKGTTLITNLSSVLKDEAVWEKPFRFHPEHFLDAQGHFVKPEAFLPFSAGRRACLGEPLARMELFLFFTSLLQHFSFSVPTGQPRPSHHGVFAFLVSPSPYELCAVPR
Source text: as §1, §2

The nature of data set [1]: Human plasma level and half-life. In kind it is in vivo.
Data set [2] concerns certain cytochrome P450 enzymes. Briefly: Cytochrome P450 inhibition in vitro. The format is in vitro ADME, human.
Source text: as §1, §2

`CS(=O)(=O)O.Cc1ccc(NC(=O)c2ccc(CN3CCNCC3)cc2)cc1Nc1nccc(-c2cccnc2)n1` [Example 10, N-[4-methyl-3-(4-pyridin-3-yl-pyrimidin-2-ylamino)-phenyl]-4-piperazin-1-ylmethyl-benzamide methanesulfonate]: the melting point lay within 242 to 245 °C.

On to `Cc1ccc(NC(=O)c2ccc(CN3CCNCC3)cc2)cc1Nc1nccc(-c2cccnc2)n1` [Example 9, N-[4-methyl-3-(4-pyridin-3-yl-pyrimidin-2-ylamino)-phenyl]-4-piperazin-1-ylmethyl-benzamide], for which the “risk of drug-drug interactions compared with STI571” value in the data set with CYP3A4/5 and at CYP2D6 was “much lower risk” throughout. Further, in data set [1], the “half-life compared with STI571” value is “somewhat longer than that of STI571”. Besides, in data set [2], the “inhibition of certain cytochrome P450 enzymes compared with STI571” value is “less inhibition”.

On to `CCN1CCN(Cc2ccc(C(=O)Nc3ccc(C)c(Nc4nccc(-c5cccnc5)n4)c3)cc2)CC1` [Example 1, 4-(4-ethyl-piperazin-1-ylmethyl)-N-[4-methyl-3-(4-pyridin-3-yl-pyrimidin-2-ylamino)-phenyl]-benzamide], for which the melting point lay in the range of 209.5 to 210.5 °C.
